Experimental data published in US20100104664A1, “TREATMENT OF CHRONIC RENAL FAILURE AND OTHER CONDITIONS IN DOMESTIC ANIMALS: COMPOSITIONS AND METHODS” (priority 2005, published 2010).

What was measured:
adult beagle dogs = test: Dog study, urine phosphate excretion; format: in vivo; conditions: 2250 mg elemental lanthanum twice daily, oral capsules, cross-over; urine approximately 24 hours after dosing
Protocol: Six adult beagle dogs were dosed orally with capsules of lanthanum oxycarbonate LaCO3OH (compound A) or La2O2CO3 (compound B) in a cross-over design using a dose of 2250 mg elemental lanthanum twice daily (6 hours apart). The doses were administered 30 minutes after provision of food to the animals. At least 14 days washout was allowed between the crossover arms. Plasma was obtained pre-dose and 1.5, 3, 6, 7.5, 9, 12, 24, 36, 48, 60, and 72 hours after dosing and analyzed for lanthanum using ICP-MS. Urine was collected by catheterization before and approximately 24 hours after dosing and creatinine and phosphorus concentrations measured.

[1] = test system: Sprague-Dawley rats with 5/6th nephrectomy; test: In vivo study in 5/6th nephrectomy rats, urine phosphorus excretion; parameters: species or system rat; conditions: 314 mg elemental lanthanum/kg/day, oral lavage once daily for 14 days; compared to untreated rats
Protocol: Groups of six adult Sprague-Dawley rats underwent ⅚th nephrectomy in two stages over a period of 2 weeks and were then allowed to recover for a further two weeks prior to being randomized for treatment. The groups received vehicle (0.5% w/v carboxymethyl cellulose), or lanthanum oxycarbonate suspended in vehicle, once daily for 14 days by oral […] (10 ml/kg/day). The dose delivered 314 mg elemental lanthanum/kg/day. Dosing was carried out immediately before the dark (feeding) cycle on each day. Urine samples (24 hours) were collected prior to surgery, prior to the commencement of treatment, and twice weekly during the treatment period. Volume and phosphorus concentration were measured.
Feeding—During the acclimatization and surgery period, the animals were given Teklad phosphate sufficient diet (0.5% Ca, 0.3% P; Teklad No. TD85343), ad libitum. At the beginning of the treatment period, animals were pair fed based upon the average food consumption of the vehicle-treated animals the previous week.
⅚ Nephrectomy—After one week of acclimatization, all animals were subjected to ⅚ nephrectomy surgery. The surgery was performed in two stages. First, the two lower branches of the left renal artery were ligated. One week later, a right nephrectomy was performed. […]

dogs = test: Palatability study in dogs; format: in vivo, dog; conditions: during hours post meal, 9 dogs
From the text: Lanthanum oxycarbonate was mixed with wet and dry dog food and presented to 9 different dogs, almost all over 40 pounds.

[2] = physical and chemical properties of the phosphate binder; format: physicochemical
From the text: The combination compositions of the present invention are benefited by the physical and chemical properties of the phosphate binders.

stability at high temperatures [2]	solubility in aqueous media ([2]; pH above 2.0)	Compound	urine phosphate excretion, a marker of phosphorous binding (adult beagle dogs)	phosphorus excretion (urine), a marker of dietary phosphorus binding [1]	signs of nausea, vomiting, bloating or flatus (dogs)
		O=C([O-])[O-].[La+3].[OH-] [compound A, LaCO3OH]	reduction of urine phosphate excretion		
		O=C([O-])[O-].[La+3].[La+3].[O-2].[O-2] [compound B, La2O2CO3]	reduction of urine phosphate excretion		
		O=C([O-])[O-].[La+3].[OH-] [lanthanum carbonate hydroxide]		decrease in phosphorus excretion	
stable at high temperatures	sparingly soluble	lanthanum oxycarbonate		decrease in phosphorus excretion	None of the dogs exhibited signs of nausea, vomiting, bloating or flatus
